Source: ChEMBL document CHEMBL4507276 (2021)

Legend:
[1] = biological target: Tyrosine-protein kinase ABL1 (Homo sapiens) (UniProt P00519); conditions: Compound concentration 1000.0 nM
[2] = biological target: Bombesin receptor subtype-3 (Homo sapiens) (UniProt P32247); assay: BB3H_AGON Cerep selectivity data (BI); conditions: filed as agonist, Compound concentration 20.0 uM
[3] = biological target: Neprilysin (Homo sapiens) (UniProt P08473); assay: N_ENDOPEP Cerep selectivity data (BI); conditions: Compound concentration 20.0 uM
[4] = biological target: Voltage-dependent N-type calcium channel subunit alpha-1B (Rattus norvegicus) (UniProt Q02294); assay: CA+/N/RA Eurofins-Panlabs selectivity data (BI); conditions: Compound concentration 10.0 uM
[5] = biological target: Cysteinyl leukotriene receptor 1 (Homo sapiens) (UniProt Q9Y271); assay: CYSLT1_HS Eurofins-Panlabs selectivity data (BI); conditions: Compound concentration 10.0 uM
[6] = biological target: Gamma-aminobutyric acid receptor subunit alpha-1 (Rattus norvegicus) (UniProt P62813); assay: GABAACENTR Eurofins-Panlabs selectivity data (BI); conditions: Compound concentration 10.0 uM
[7] = biological target: Histamine H1 receptor (Homo sapiens) (UniProt P35367); assay: H1/H Eurofins-Panlabs selectivity data (BI); conditions: Compound concentration 10.0 uM
[8] = biological target: Neuropeptide Y receptor type 2 (Homo sapiens) (UniProt P49146); assay: Y2/HU Eurofins-Panlabs selectivity data (BI); conditions: Compound concentration 10.0 uM
[9] = biological target: T1, Activin receptor type-1 (Homo sapiens) (UniProt Q04771); assay: ACVR1 Invitrogen selectivity data (BI); conditions: Compound concentration 3.0 uM
T1 sequence (whole entry): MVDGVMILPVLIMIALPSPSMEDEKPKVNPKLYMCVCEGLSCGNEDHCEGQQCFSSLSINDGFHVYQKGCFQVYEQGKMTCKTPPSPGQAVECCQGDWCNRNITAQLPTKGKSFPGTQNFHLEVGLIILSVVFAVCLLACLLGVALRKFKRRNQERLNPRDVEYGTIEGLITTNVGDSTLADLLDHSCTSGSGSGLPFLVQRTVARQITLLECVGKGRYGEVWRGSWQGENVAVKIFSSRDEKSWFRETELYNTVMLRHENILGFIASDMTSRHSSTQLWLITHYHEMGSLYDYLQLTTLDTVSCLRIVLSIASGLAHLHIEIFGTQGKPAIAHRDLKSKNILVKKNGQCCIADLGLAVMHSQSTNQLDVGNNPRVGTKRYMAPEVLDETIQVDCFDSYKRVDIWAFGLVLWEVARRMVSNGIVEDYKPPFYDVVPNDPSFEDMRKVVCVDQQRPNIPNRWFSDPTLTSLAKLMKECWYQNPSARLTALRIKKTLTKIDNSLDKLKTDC

[10] = biological target: Death-associated protein kinase 3 (Homo sapiens) (UniProt O43293); assay: DAPK3 Invitrogen selectivity data (BI); conditions: Compound concentration 3.0 uM
[11] = biological target: Insulin receptor-related protein (Homo sapiens) (UniProt P14616); assay: INSRR Invitrogen selectivity data (BI); conditions: Compound concentration 3.0 uM
[12] = biological target: T2, MAP kinase-activated protein kinase 5 (Homo sapiens) (UniProt Q8IW41); assay: MAPKAPK5 Invitrogen selectivity data (BI); conditions: Compound concentration 3.0 uM
T2 sequence (whole entry): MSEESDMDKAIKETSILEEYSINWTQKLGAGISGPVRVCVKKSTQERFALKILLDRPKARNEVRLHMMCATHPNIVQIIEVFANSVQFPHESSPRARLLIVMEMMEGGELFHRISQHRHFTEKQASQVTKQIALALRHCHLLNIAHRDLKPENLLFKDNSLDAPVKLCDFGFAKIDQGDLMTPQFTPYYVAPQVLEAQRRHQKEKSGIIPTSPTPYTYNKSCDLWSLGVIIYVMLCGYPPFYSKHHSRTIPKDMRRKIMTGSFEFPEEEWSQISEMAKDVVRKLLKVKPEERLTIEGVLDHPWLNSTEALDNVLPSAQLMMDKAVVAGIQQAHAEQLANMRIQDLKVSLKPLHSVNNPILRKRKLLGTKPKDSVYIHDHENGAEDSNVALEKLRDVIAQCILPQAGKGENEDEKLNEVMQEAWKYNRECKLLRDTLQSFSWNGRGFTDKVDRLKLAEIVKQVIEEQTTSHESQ

[13] = biological target: Serine/threonine-protein kinase MARK1 (Homo sapiens) (UniProt Q9P0L2); assay: MARK1 Invitrogen selectivity data (BI); conditions: Compound concentration 3.0 uM
[14] = biological target: Protein kinase C gamma type (Homo sapiens) (UniProt P05129); assay: PRKCG Invitrogen selectivity data (BI); conditions: Compound concentration 3.0 uM
[15] = biological target: Protein kinase C zeta type (Homo sapiens) (UniProt Q05513); assay: PRKCZ Invitrogen selectivity data (BI); conditions: Compound concentration 3.0 uM
[16] = biological target: T3, Aurora kinase A (Homo sapiens) (UniProt O14965); assay: STK6 Invitrogen selectivity data (BI); conditions: Compound concentration 3.0 uM
T3 sequence (whole entry): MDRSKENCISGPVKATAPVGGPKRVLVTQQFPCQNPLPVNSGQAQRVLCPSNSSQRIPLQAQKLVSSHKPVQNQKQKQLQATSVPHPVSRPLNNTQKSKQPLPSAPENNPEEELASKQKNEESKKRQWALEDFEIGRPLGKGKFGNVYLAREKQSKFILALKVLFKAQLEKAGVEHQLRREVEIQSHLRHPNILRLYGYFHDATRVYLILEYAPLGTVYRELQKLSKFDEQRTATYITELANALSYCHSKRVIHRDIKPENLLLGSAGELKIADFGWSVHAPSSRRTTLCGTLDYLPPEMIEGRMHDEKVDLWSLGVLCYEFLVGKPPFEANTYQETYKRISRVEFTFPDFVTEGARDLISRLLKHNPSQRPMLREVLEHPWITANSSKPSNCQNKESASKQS

[17] = biological target: Non-receptor tyrosine-protein kinase TYK2 (Homo sapiens) (UniProt P29597); assay: TYK2 Invitrogen selectivity data (BI); conditions: Compound concentration 3.0 uM
[18] = biological target: T4, Muscarinic acetylcholine receptor M1 (Homo sapiens) (UniProt P11229); conditions: Compound concentration 10.0 uM
T4 sequence (whole entry): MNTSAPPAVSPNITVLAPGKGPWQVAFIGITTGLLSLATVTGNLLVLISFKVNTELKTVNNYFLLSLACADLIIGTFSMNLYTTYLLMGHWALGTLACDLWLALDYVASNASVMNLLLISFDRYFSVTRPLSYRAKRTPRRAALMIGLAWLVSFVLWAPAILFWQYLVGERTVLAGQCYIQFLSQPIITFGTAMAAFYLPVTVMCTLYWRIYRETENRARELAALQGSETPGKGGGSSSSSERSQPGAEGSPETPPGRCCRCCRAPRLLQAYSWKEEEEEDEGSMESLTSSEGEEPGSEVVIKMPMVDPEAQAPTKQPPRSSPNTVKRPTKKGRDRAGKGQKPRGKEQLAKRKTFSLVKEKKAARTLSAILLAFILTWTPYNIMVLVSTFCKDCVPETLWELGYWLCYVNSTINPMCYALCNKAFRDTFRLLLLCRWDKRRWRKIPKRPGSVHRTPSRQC

Chain of Insulin receptor-related protein (Homo sapiens) (P14616 27-742 limits assumed): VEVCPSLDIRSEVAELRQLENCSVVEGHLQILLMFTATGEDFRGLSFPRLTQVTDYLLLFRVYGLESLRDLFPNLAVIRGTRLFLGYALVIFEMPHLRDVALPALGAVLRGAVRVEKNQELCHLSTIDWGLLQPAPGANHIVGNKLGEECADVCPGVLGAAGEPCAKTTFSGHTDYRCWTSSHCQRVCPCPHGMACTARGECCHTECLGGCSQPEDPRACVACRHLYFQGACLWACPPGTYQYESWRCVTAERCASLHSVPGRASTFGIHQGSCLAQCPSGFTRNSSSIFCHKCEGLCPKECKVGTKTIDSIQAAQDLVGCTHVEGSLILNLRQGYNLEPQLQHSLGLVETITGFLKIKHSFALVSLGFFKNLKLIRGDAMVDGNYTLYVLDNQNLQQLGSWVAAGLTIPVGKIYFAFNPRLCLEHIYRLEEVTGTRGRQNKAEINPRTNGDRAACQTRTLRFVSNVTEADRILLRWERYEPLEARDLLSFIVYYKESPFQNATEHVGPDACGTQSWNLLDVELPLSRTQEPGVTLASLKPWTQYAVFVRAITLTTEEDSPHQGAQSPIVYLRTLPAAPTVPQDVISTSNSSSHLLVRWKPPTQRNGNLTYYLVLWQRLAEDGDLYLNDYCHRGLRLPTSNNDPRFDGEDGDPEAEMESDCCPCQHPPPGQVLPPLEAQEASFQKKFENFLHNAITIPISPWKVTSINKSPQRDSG
Chain of Insulin receptor-related protein (Homo sapiens) (P14616 747-1297 limits assumed): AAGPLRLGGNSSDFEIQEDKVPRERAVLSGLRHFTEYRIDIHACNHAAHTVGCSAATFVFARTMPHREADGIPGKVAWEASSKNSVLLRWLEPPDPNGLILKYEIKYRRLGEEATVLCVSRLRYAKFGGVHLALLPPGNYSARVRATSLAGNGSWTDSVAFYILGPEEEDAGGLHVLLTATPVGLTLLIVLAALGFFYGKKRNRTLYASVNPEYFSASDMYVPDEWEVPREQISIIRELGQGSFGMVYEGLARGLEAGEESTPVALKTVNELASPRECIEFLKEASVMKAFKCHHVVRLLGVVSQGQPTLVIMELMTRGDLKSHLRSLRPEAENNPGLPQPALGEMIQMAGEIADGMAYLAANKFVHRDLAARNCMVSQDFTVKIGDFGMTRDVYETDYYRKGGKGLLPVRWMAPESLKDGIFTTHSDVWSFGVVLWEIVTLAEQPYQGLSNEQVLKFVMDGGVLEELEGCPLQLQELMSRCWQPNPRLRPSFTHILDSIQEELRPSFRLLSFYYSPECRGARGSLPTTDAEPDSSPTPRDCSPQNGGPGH
Chain of Tyrosine-protein kinase ABL1 (Homo sapiens) (P00519 whole entry): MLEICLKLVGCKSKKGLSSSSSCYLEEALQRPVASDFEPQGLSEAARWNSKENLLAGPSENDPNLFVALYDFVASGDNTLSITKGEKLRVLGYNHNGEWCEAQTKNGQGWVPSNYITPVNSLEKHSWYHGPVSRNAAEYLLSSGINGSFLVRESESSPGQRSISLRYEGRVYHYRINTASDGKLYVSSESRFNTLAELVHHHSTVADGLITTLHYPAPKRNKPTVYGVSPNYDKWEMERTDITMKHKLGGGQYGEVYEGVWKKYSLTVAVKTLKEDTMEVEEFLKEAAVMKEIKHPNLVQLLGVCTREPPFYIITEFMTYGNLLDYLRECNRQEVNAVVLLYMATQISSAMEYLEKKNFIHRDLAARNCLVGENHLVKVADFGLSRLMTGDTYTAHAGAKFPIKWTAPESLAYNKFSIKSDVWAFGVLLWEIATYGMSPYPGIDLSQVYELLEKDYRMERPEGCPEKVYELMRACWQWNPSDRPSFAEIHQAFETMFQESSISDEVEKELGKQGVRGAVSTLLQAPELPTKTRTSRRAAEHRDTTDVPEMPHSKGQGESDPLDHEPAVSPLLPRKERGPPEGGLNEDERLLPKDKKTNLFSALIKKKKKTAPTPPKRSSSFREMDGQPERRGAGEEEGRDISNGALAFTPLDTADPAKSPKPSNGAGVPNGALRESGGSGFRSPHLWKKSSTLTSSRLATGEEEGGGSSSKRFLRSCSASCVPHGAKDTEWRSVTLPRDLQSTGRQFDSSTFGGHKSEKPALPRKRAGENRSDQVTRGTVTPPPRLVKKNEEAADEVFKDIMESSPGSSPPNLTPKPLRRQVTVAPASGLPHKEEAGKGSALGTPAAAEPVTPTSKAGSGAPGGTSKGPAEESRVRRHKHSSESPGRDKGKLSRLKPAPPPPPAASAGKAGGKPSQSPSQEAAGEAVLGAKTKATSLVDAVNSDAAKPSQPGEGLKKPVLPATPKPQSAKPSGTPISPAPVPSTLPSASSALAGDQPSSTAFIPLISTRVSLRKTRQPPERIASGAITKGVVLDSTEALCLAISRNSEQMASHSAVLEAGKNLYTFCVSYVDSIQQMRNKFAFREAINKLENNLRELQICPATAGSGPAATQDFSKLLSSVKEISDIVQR
Chain of Cysteinyl leukotriene receptor 1 (Homo sapiens) (Q9Y271 whole entry): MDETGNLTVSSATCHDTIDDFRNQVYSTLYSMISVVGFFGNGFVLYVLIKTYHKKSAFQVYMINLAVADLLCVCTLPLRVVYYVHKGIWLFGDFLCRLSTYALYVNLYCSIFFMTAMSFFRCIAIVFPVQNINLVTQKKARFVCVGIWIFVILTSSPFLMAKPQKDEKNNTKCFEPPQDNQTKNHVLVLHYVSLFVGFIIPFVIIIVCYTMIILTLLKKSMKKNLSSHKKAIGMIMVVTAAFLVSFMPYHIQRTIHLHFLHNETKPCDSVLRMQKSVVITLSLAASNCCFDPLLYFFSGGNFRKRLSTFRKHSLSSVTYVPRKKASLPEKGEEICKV
Chain of Protein kinase C zeta type (Homo sapiens) (Q05513 whole entry): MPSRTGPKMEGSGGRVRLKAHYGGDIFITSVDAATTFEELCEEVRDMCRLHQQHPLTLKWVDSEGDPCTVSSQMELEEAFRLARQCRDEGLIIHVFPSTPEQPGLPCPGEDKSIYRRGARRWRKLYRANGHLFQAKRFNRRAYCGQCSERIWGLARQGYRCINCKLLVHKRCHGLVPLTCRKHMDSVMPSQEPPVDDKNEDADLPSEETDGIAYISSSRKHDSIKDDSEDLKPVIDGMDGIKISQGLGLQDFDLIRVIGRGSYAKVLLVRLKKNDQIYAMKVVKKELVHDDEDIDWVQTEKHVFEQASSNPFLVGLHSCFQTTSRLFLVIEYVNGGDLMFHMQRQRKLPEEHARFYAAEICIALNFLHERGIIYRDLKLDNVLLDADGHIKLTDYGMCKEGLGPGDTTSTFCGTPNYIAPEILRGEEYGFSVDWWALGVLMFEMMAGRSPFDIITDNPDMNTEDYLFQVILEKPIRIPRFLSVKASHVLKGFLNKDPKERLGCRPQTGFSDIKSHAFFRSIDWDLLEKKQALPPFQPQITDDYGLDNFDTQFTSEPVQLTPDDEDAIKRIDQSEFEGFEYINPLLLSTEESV
Chain of Histamine H1 receptor (Homo sapiens) (P35367 whole entry): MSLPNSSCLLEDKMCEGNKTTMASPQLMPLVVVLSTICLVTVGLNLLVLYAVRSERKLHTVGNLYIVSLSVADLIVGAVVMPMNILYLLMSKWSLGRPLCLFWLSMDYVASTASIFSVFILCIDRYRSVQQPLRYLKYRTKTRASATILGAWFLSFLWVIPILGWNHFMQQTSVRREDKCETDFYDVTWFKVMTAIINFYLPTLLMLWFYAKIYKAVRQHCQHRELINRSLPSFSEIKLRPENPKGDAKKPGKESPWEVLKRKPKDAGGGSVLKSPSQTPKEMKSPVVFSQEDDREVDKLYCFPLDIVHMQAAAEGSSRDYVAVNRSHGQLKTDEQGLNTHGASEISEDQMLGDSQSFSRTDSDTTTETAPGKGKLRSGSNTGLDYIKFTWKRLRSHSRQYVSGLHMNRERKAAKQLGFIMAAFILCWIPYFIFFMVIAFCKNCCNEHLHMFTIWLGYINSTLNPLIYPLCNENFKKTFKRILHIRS
Chain of Neuropeptide Y receptor type 2 (Homo sapiens) (P49146 whole entry): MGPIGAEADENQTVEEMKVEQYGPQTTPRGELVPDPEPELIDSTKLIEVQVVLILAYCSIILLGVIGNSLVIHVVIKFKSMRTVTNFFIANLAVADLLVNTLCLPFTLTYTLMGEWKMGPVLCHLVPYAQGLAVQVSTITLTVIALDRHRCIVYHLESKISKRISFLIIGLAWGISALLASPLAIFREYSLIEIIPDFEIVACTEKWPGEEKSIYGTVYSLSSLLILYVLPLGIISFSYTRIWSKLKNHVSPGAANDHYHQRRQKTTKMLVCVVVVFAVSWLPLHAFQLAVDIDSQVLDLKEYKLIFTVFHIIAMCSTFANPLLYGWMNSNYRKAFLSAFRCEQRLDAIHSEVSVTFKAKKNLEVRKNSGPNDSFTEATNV

CN(C)C(=O)Cn1cc(-c2nc(C3(c4ccc(-c5cnc(N)nc5)cc4)CC3)no2)cn1 [BI 0153]
inactive: residual activity [1] 100%

CN(C)C(=O)Cn1cc(-c2nc([C@@](C)(c3ccc(-c4cnc(N)nc4)cc3)C3CC3)no2)cn1 [BI 665915]
inactive: residual activity [2] 108% | residual activity [3] 108% | residual activity [4] 95% | residual activity [5] 100% | residual activity [6] 115% | residual activity [7] 103% | residual activity [8] 97% | residual activity [9] 79% | residual activity [10] 99% | residual activity [11] 96% | residual activity [12] 98.5% | residual activity [13] 98% | residual activity [14] 100% | residual activity [15] 100% | residual activity [16] 75.5% | residual activity [17] 97.5% | inhibition [18] -4.93%
